Row | Compound | melting point [°C]
1 | O=C1CC(c2cccc(-n3ccnc3)c2)=Nc2cc(OCCO)c(C#Cc3ccccc3)cc2N1 | 224 to 227
2 | CCOC(=O)COc1ccc2cc(S(N)(=O)=O)sc2c1 | 182 to 184
3 | Cc1oc(-c2ccccc2)nc1CCOc1ccc(CNO)cc1 | 99 to 102
4 | CCCCCCCCCCCCC1CC(=C(C#N)C#N)CCC1=C(C#N)C#N (centres undefined) | 97
5 | Cc1ccc(S(=O)(=O)OCCC2C3=C(CC=CC3)CCc3ccccc32)cc1 (centres undefined) | 150 to 151
6 | CCC(C)Cc1c(-c2ccc(C(N)=S)cc2Cl)c(C)nc2ncnn12 (centres undefined) | 173 to 177
7 | O=Cc1cc2c(s1)-c1ccccc1OC2C1=CCCC=C1 (centres undefined) | 117 to 118
8 | CC(c1ccc(C#N)nc1)C(O)(Cn1cncn1)c1ccc(F)cc1F (centres undefined) | 136 to 141
9 | O=C(O)CNc1ccccc1F | 126 to 127
10 | COc1ccccc1Cn1c(=O)c2c(Cl)cc(N3CCNCC3)cc2n(Cc2ccccc2)c1=O | 83 to 87
11 | CC#CCOc1ccc(S(=O)(=O)N(C)C(C(=O)NO)c2ccc(OCCCNC(=O)OCC)cc2)cc1 (centres undefined) | 60 to 62
12 | CC[C@H](C)[C@H](NS(=O)(=O)c1cccc2ccccc12)C(=O)N[C@@H](Cc1c[nH]c2ccccc12)C(=O)OC | 172 to 174
13 | Cc1ccn(-c2ccc(C(=O)O)c(Cl)c2)n1 | 192 to 193
14 | CN1c2ccc(CC(=O)O)cc2CCC1c1ccccc1 (centres undefined) | 110 to 111
15 | CC(C)c1nn(-c2ccc(C(F)(F)F)cn2)cc1CCCOc1c(CC(=O)O)cnn1C | 146 to 148
16 | NC(=O)c1ccc(F)c(-c2cccc3cc(Cc4cccc(C(F)(F)F)c4)sc23)c1 | 139 to 140
17 | O=C(O)C1CCC(=O)N1Cc1cccc(F)c1 (centres undefined) | 114 to 116
18 | CC(C)Nc1nc2cc(F)c(F)cc2[nH]1 | 188 to 189
19 | CCOC(=O)c1cnc2c(cnn2-c2ccccc2)c1N(Cc1ccccc1)S(=O)(=O)c1ccc(OC)cc1 | 124 to 126
20 | Cc1cc(C#N)cc(C(=O)c2nc(OCc3ccccc3)nc(OCc3ccccc3)c2C(C)C)c1 | 129 to 130
21 | CC(=O)c1cc(CC2CO2)c(OCCCCC#N)cc1O (centres undefined) | 86 to 87
22 | Cc1cc(SC(C)C)c(NC(=O)CCCCSc2nc3ccccc3o2)c(SC(C)C)n1 | 129 to 130
23 | Cc1ccc(C(=O)C2=C(O)C(=O)N(c3ccc(C)cn3)C2c2ccc(C(C)C)cc2)cc1 (centres undefined) | 259 to 261
24 | Cc1oc2c(C)cc(C=O)cc2c1C | 57 to 58
25 | CN1CCN(C(=O)C(CC(=O)N2Cc3cscc3C2)Cc2ccccc2)CC1 (centres undefined) | 156 to 158

Row | Compound | melting point [°C]
26 | O=c1ccn(-c2cccc(C(F)(F)F)c2)nc1-c1ccnn1-c1ccccc1 | 156 to 157
27 | Cc1c(N[C@@H](c2nnc(-c3ccc(F)c(O)c3)o2)[C@H](C)O)ccc(C#N)c1Cl | 103 to 108
28 | CN1C(=O)OC(C)(C)c2cc(-c3cccc(Br)c3)ccc21 | 142 to 143
29 | O=C1OCC2Cc3ccccc3OC12 (centres undefined) | 107 to 111
30 | c1ccc(NCP(CNc2ccccc2)CNc2ccccc2)cc1 | 87 to 88
31 | CCOC(=O)/C=C/c1cn(Cc2ccc(OCc3ccccc3)cc2)cc1-c1ccccc1 | 111 to 112
32 | C=CCOc1cc(N2C(=O)c3ccccc3C2=O)c(F)cc1Cl | 148 to 150
33 | COc1ccc2[nH]cc(-c3cc4nccnc4[nH]3)c2c1 | 268 to 271
34 | O=c1oc2ccccc2c(=O)n1OS(=O)(=O)C(F)(F)F | 74 to 76
35 | CC1(C)OC(=O)Nc2ccc(-c3ccc(C#N)c(F)c3)cc21 | 272 to 275
36 | COc1ccc(Cl)cc1NC(=O)[C@H]1[C@H](c2ccc(Cl)cc2)C1(C)C (relative stereo) | 162 to 164
37 | COc1nc(C)cnc1NS(=O)(=O)c1cccnc1-c1ccc(NC(C)=O)cc1 | 208 to 209
38 | CCOC(=O)c1ccc(CC(C)NCC(O)c2ccc(O)c(CO)c2)cc1 (centres undefined) | 92 to 96
39 | CC(C)(C)OC(=O)NCCc1cccc(C(=O)Nc2ccc(Nc3cc(-c4cccc5c4oc4ccccc45)ncn3)cc2)c1 | 235 to 238
40 | CC(C)(CO)c1cnc(-c2nn(-c3ccc(F)cc3F)c3c2C2CCC3C2)o1 (centres undefined) | 66 to 68
41 | OCc1cc2c(F)ccc(Cl)c2s1 | 63 to 64
42 | COc1ccc(Oc2c(C)cc(CC(=O)O)cc2C)cc1C(C)C | 118 to 120
43 | CN(O)C(=O)Nc1ccc(Oc2ccc(NC(=O)N(C)O)cc2)cc1 | 183 to 184
44 | N#Cc1ccc(S(=O)(=O)Nc2cccc3c(C#N)c[nH]c23)cc1 | 250 to 252
45 | COc1cc(C=O)ccc1OCc1nc(-c2cccc(OS(C)(=O)=O)c2)oc1C | 136 to 137
46 | C#CCOC(=O)C1C(C)=NC(N2CCCCC2)=C(C(=O)OCC)C1c1cccc([N+](=O)[O-])c1 (centres undefined) | 121
47 | Cc1nn(-c2ccccn2)c2nc3ccccc3c(C(N)=O)c12 | > 300
48 | CC(NC(=O)CNC(=O)c1ccccc1)C(C)(C)C (centres undefined) | 124 to 126
49 | CS(=O)(=O)c1ccc(CCNC(=O)C(N)=O)cc1OC1CCCC1 | 185 to 186
